Legend:
[1] = target: cGMP-inhibited 3',5'-cyclic phosphodiesterase 3A (Homo sapiens) (UniProt Q14432); assay: PDE3A (h) Eurofins-Cerep enzyme and uptake assay; conditions: Compound concentration 10.0 uM
[2] = target: Cannabinoid receptor 1 (Homo sapiens) (UniProt P21554); assay: CB1 (h) Eurofins-Cerep binding assay; set-up: ligand concentration 0.5 nM; conditions: filed as agonist, Compound concentration 10.0 uM
[3] = target: Cannabinoid receptor 2 (Homo sapiens) (UniProt P34972); assay: CB2 (h) Eurofins-Cerep binding assay; set-up: ligand concentration 0.8 nM; conditions: filed as agonist, Compound concentration 10.0 uM
[4] = target: Motilin receptor (Homo sapiens) (UniProt O43193); assay: motilin (h Eurofins-Cerep binding assay; set-up: ligand concentration 0.05 nM; conditions: filed as agonist, Compound concentration 10.0 uM
[5] = target: 5-hydroxytryptamine receptor 2B (Homo sapiens) (UniProt P41595); assay: 5-HT2B (h) Eurofins-Cerep binding assay; set-up: ligand concentration 0.2 nM; conditions: filed as agonist, Compound concentration 10.0 uM
Sequence of 5-hydroxytryptamine receptor 2B (Homo sapiens) (P41595 whole entry): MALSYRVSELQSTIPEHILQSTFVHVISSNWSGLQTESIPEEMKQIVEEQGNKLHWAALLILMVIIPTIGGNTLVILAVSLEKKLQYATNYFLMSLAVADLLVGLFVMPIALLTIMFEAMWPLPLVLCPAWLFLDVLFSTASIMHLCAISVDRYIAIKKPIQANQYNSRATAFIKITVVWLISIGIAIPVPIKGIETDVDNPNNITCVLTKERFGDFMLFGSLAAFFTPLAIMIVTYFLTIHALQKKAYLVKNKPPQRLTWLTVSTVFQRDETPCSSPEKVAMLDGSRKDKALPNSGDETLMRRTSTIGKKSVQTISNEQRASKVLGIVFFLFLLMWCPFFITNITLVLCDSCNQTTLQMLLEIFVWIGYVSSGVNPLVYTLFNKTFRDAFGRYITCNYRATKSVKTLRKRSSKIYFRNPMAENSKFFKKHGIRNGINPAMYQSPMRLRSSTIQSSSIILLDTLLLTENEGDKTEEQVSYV

[6] = target: Activin receptor type-2A (Homo sapiens) (UniProt P27037); conditions: Compound concentration 1000.0 nM
[7] = target: 5'-AMP-activated protein kinase catalytic subunit alpha-1 (Homo sapiens) (UniProt Q13131); conditions: Compound concentration 1000.0 nM
Sequence of 5'-AMP-activated protein kinase catalytic subunit alpha-1 (Homo sapiens) (Q13131 whole entry, looked up, the tested form may be a part): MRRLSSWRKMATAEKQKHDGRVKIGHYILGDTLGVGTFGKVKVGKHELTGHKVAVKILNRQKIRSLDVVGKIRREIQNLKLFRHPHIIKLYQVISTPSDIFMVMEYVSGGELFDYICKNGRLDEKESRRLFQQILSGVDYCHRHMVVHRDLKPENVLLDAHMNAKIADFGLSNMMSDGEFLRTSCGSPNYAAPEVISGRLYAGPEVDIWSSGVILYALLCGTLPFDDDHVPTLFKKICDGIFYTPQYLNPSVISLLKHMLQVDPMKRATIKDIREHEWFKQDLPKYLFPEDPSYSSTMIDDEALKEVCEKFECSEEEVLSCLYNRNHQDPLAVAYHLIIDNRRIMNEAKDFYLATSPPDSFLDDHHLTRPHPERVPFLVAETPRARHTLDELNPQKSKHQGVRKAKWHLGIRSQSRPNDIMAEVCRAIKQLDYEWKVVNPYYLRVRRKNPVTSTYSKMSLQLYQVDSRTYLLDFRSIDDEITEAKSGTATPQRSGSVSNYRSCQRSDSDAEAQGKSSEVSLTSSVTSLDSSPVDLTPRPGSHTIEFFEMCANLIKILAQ

[8] = target: Ankyrin repeat and protein kinase domain-containing protein 1 (Homo sapiens) (UniProt Q8NFD2); conditions: Compound concentration 1000.0 nM
[9] = target: Cyclin-dependent kinase 19 (Homo sapiens) (UniProt Q9BWU1); conditions: Compound concentration 1000.0 nM
[10] = target: Macrophage colony-stimulating factor 1 receptor (Homo sapiens) (UniProt P07333); conditions: Compound concentration 1000.0 nM
Sequence of Macrophage colony-stimulating factor 1 receptor (Homo sapiens) (P07333 whole entry, canonical isoform): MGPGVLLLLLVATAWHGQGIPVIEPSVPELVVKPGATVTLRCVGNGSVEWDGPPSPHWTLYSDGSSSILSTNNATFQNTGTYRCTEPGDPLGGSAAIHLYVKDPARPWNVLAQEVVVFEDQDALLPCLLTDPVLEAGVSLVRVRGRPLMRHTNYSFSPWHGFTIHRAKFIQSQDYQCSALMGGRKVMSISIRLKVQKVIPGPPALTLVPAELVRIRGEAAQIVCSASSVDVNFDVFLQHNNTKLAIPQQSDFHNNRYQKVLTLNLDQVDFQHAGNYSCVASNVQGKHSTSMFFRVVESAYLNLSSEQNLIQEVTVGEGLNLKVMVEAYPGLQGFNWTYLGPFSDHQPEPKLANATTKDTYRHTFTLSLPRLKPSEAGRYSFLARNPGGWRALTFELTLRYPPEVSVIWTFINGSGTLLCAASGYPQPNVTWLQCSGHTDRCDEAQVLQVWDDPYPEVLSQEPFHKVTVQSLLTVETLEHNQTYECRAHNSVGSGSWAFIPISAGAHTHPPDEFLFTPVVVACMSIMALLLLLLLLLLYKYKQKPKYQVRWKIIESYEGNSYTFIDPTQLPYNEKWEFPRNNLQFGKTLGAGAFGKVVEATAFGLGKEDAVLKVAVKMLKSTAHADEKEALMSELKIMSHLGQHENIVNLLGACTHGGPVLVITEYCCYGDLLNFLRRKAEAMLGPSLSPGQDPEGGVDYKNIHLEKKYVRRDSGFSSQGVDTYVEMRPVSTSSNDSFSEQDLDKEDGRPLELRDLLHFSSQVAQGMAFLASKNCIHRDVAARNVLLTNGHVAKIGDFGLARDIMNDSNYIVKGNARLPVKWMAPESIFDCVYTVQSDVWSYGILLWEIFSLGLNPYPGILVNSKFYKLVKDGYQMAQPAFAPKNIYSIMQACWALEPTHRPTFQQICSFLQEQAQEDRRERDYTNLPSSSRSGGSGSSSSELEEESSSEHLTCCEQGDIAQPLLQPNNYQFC

[11] = target: Macrophage colony-stimulating factor 1 receptor (Homo sapiens) (UniProt P07333); conditions: Compound concentration 1000.0 nM; remark: listed apart in the source
[12] = target: Casein kinase I isoform epsilon (Homo sapiens) (UniProt P49674); conditions: Compound concentration 1000.0 nM
[13] = target: Death-associated protein kinase 1 (Homo sapiens) (UniProt P53355); conditions: Compound concentration 1000.0 nM
Sequence of Death-associated protein kinase 1 (Homo sapiens) (P53355 whole entry, looked up): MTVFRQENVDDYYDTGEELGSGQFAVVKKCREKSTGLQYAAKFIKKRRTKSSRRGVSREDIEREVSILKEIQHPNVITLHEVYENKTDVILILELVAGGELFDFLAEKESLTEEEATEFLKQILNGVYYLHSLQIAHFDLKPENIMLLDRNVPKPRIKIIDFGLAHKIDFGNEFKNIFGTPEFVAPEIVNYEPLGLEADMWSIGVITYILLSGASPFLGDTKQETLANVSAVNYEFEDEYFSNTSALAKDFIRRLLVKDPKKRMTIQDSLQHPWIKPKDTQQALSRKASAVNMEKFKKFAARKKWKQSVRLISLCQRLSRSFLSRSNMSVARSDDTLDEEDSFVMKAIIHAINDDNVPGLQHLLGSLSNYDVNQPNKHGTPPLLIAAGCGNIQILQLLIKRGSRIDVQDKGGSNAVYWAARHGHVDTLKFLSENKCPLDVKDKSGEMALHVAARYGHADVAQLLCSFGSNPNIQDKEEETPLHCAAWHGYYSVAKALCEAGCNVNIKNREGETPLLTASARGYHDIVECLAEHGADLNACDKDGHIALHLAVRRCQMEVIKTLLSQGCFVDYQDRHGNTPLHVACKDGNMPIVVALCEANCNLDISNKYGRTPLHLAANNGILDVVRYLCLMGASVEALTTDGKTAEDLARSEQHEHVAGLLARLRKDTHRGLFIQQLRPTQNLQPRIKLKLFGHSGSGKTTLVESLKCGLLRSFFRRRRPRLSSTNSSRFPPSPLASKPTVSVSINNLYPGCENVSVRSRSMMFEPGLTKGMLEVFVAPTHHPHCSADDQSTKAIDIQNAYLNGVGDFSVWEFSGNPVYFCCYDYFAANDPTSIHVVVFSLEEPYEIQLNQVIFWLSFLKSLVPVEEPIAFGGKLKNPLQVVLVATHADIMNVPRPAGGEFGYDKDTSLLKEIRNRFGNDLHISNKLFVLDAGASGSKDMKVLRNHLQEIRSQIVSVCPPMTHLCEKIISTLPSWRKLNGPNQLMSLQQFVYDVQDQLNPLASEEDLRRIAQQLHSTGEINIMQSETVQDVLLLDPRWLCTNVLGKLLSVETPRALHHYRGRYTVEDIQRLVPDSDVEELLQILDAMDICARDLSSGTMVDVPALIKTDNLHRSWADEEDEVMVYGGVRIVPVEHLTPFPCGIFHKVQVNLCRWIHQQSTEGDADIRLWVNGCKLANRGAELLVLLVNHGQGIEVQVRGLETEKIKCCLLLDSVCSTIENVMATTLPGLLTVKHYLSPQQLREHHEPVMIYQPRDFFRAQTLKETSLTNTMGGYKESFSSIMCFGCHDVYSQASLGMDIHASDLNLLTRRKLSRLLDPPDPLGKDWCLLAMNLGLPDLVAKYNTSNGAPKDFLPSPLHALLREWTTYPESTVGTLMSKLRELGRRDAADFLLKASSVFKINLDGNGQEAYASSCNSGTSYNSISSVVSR

[14] = tested on: Epidermal growth factor receptor (Homo sapiens), P00533 [T790M]; conditions: Compound concentration 1000.0 nM
[15] = tested on: Receptor-type tyrosine-protein kinase FLT3 (Homo sapiens), P36888 [UNDEFINED MUTATION]; conditions: Compound concentration 1000.0 nM
[16] = target: Beta-adrenergic receptor kinase 1 (Homo sapiens) (UniProt P25098); conditions: Compound concentration 1000.0 nM
[17] = target: Mitogen-activated protein kinase kinase kinase kinase 1 (Homo sapiens) (UniProt Q92918); conditions: Compound concentration 1000.0 nM
[18] = target: Inhibitor of nuclear factor kappa-B kinase subunit epsilon (Homo sapiens) (UniProt Q14164); conditions: Compound concentration 1000.0 nM
[19] = tested on: Mast/stem cell growth factor receptor Kit (Homo sapiens), P10721 [D816V]; conditions: Compound concentration 1000.0 nM
Sequence of Mast/stem cell growth factor receptor Kit (Homo sapiens), P10721 [D816V] (P10721 whole entry D816V): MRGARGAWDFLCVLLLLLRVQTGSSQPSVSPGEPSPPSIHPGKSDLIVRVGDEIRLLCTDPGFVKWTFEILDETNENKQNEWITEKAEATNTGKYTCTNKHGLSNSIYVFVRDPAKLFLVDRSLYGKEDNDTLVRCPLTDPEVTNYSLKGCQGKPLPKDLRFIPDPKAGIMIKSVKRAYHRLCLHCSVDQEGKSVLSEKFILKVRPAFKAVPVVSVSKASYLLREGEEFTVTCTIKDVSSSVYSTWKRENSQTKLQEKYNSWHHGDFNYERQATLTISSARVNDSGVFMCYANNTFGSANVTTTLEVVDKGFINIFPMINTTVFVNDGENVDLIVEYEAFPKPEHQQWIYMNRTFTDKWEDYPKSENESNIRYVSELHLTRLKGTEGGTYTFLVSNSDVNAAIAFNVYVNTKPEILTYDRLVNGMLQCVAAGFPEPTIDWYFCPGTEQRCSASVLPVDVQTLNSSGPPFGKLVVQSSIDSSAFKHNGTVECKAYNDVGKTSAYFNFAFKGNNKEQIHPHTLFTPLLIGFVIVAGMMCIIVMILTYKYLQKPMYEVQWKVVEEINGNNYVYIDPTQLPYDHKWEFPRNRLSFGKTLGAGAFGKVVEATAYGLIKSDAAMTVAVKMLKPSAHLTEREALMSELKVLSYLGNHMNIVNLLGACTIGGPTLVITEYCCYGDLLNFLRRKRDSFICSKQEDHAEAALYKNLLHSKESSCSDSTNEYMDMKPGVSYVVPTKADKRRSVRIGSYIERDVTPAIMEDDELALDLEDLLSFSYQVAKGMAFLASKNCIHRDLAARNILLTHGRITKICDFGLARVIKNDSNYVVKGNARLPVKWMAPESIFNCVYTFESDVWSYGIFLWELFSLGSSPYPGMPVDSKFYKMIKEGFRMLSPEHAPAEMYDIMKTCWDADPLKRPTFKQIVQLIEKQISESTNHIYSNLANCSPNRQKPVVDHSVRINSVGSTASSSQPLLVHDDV

[20] = tested on: Mast/stem cell growth factor receptor Kit (Homo sapiens), P10721 [V559D]; conditions: Compound concentration 1000.0 nM
Sequence of Mast/stem cell growth factor receptor Kit (Homo sapiens), P10721 [V559D] (P10721 whole entry V559D): as the sequence (P10721 whole entry D816V) above, with V559D, V816D counted along it

[21] = target: Mitogen-activated protein kinase kinase kinase 15 (Homo sapiens) (UniProt Q6ZN16); conditions: Compound concentration 1000.0 nM
[22] = target: Serine/threonine-protein kinase MARK2 (Homo sapiens) (UniProt Q7KZI7); conditions: Compound concentration 1000.0 nM
[23] = target: Dual specificity mitogen-activated protein kinase kinase 3 (Homo sapiens) (UniProt P46734); conditions: Compound concentration 1000.0 nM
[24] = target: Mitogen-activated protein kinase kinase kinase 10 (Homo sapiens) (UniProt Q02779); conditions: Compound concentration 1000.0 nM
[25] = target: Serine/threonine-protein kinase 26 (Homo sapiens) (UniProt Q9P289); conditions: Compound concentration 1000.0 nM
[26] = target: Serine/threonine-protein kinase Nek9 (Homo sapiens) (UniProt Q8TD19); conditions: Compound concentration 1000.0 nM
[27] = target: Cyclin-dependent kinase 15 (Homo sapiens) (UniProt Q96Q40); conditions: Compound concentration 1000.0 nM
[28] = target: Phosphatidylinositol 3-kinase C2 domain-containing subunit gamma (Homo sapiens) (UniProt O75747); conditions: Compound concentration 1000.0 nM
[29] = target: Phosphatidylinositol 4,5-bisphosphate 3-kinase catalytic subunit beta isoform (Homo sapiens) (UniProt P42338); conditions: Compound concentration 1000.0 nM
[30] = target: cAMP-dependent protein kinase catalytic subunit alpha (Homo sapiens) (UniProt P17612); conditions: Compound concentration 1000.0 nM
[31] = target: Serine/threonine-protein kinase PLK2 (Homo sapiens) (UniProt Q9NYY3); conditions: Compound concentration 1000.0 nM
[32] = target: Protein kinase C epsilon type (Homo sapiens) (UniProt Q02156); conditions: Compound concentration 1000.0 nM
[33] = target: Protein-tyrosine kinase 2-beta (Homo sapiens) (UniProt Q14289); conditions: Compound concentration 1000.0 nM
[34] = tested on: Proto-oncogene tyrosine-protein kinase receptor Ret (Homo sapiens), P07949 [M918T]; conditions: Compound concentration 1000.0 nM
[35] = target: Receptor-interacting serine/threonine-protein kinase 2 (Homo sapiens) (UniProt O43353); conditions: Compound concentration 1000.0 nM
[36] = target: Uncharacterized serine/threonine-protein kinase SBK3 (Homo sapiens) (UniProt P0C264); conditions: Compound concentration 1000.0 nM
[37] = target: STE20-like serine/threonine-protein kinase (Homo sapiens) (UniProt Q9H2G2); conditions: Compound concentration 1000.0 nM
[38] = target: Proto-oncogene tyrosine-protein kinase Src (Homo sapiens) (UniProt P12931); conditions: Compound concentration 1000.0 nM
[39] = target: Serine/threonine-protein kinase ULK3 (Homo sapiens) (UniProt Q6PHR2); conditions: Compound concentration 1000.0 nM
[40] = target: Serine/threonine-protein kinase VRK2 (Homo sapiens) (UniProt Q86Y07); conditions: Compound concentration 1000.0 nM
[41] = target: 5-hydroxytryptamine receptor 2B (Homo sapiens) (UniProt P41595); conditions: Compound concentration 10.0 uM
[42] = target: D(2) dopamine receptor (Homo sapiens) (UniProt P14416); conditions: Compound concentration 10.0 uM
Sequence of D(2) dopamine receptor (Homo sapiens) (P14416 whole entry): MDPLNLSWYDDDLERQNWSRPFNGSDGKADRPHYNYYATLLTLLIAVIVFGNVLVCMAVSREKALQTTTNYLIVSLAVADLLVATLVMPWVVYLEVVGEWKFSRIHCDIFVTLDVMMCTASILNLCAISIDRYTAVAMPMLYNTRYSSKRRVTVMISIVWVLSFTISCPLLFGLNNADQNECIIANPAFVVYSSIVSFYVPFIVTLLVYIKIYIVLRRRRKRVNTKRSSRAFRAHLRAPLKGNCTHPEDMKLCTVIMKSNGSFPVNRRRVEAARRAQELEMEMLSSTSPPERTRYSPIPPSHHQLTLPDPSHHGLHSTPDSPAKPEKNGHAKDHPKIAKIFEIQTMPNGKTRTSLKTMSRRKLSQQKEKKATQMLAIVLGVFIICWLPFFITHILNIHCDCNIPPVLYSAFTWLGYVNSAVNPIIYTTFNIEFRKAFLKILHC

[43] = target: GABA-A receptor; anion channel (Rattus norvegicus) (UniProt O09028+P15431+P18506+P18508+P19969+P20236+P23574+P23576+P28471+P28473+P30191+P62813+P63079+P63138+Q91ZM7+Q9ES14); conditions: Compound concentration 10.0 uM

Work on `COc1ccc2c(c1)O[C@H](c1ccc(OC)c(OC)c1)C[C@@H]2NC(=O)C1(c2ccc3c(c2)OC(F)(F)O3)CC1` [A-1596584] yielded a % Inhibition of Control Values (Mean n=2) [1] of -2.1%, a % Inhibition of Control Specific Binding (Mean n=2) [2] of 46% and a % Inhibition of Control Specific Binding (Mean n=2) [3] of 73.7%. For the same compound, the % Inhibition of Control Specific Binding (Mean n=2) [4] was 26.4%, the % Inhibition of Control Specific Binding (Mean n=2) [5] was -14.6% and the residual activity [6] was 97%. It also gave a residual activity [7] of 100%, a residual activity [8] of 100% and a residual activity [9] of 94%. For the same compound, the residual activity [10] was 100%, the residual activity [11] was 100% and the residual activity [12] was 100%. For the same compound, the residual activity [13] was 100%, the residual activity [14] was 87% and the residual activity [15] was 72%. The residual activity [16] was 84%, the residual activity [17] was 98% and the residual activity [18] was 96%. The residual activity [19] was 99%, the residual activity [20] was 100% and the residual activity [21] was 100%. The residual activity [22] was 100%, the residual activity [23] was 100% and the residual activity [24] was 97%. For the same compound, the residual activity [25] was 84%, the residual activity [26] was 100% and the residual activity [27] was 100%. For the same compound, the residual activity [28] was 61%, the residual activity [29] was 100% and the residual activity [30] was 100%. It also gave a residual activity [31] of 100%, a residual activity [32] of 90% and a residual activity [33] of 100%. The residual activity [34] was 99%, the residual activity [35] was 100% and the residual activity [36] was 100%. For the same compound, the residual activity [37] was 100%, the residual activity [38] was 100% and the residual activity [39] was 90%. It also gave a residual activity [40] of 82%, an inhibition [41] of -0.83% and an inhibition [42] of -7.27%. For the same compound, the inhibition [43] was 11.1%.
In the case of `COc1ccc2c(c1)O[C@@H](c1ccc(OC)c(OC)c1)C[C@H]2NC(=O)C1(c2ccc3c(c2)OC(F)(F)O3)CC1` [A-1596586], the % Inhibition of Control Values (Mean n=2) [1] is reported as 1.2%, the % Inhibition of Control Specific Binding (Mean n=2) [2] is reported as 40.8% and the % Inhibition of Control Specific Binding (Mean n=2) [3] is reported as 30.2%. For the same compound, the % Inhibition of Control Specific Binding (Mean n=2) [4] was 10.7%, the % Inhibition of Control Specific Binding (Mean n=2) [5] was 8.5% and the residual activity [6] was 90%. The residual activity [7] was 80%, the residual activity [8] was 76% and the residual activity [9] was 93%. For the same compound, the residual activity [10] was 100%, the residual activity [11] was 82% and the residual activity [12] was 100%. It also gave a residual activity [13] of 99%, a residual activity [14] of 82% and a residual activity [15] of 65%. The residual activity [16] was 100%, the residual activity [17] was 90% and the residual activity [18] was 70%. For the same compound, the residual activity [19] was 92%, the residual activity [20] was 86% and the residual activity [21] was 88%. It also gave a residual activity [22] of 92%, a residual activity [23] of 78% and a residual activity [24] of 100%. For the same compound, the residual activity [25] was 75%, the residual activity [26] was 100% and the residual activity [27] was 100%. It also gave a residual activity [28] of 83%, a residual activity [29] of 89% and a residual activity [30] of 100%. It also gave a residual activity [31] of 81%, a residual activity [32] of 91% and a residual activity [33] of 100%. It also gave a residual activity [34] of 90%, a residual activity [35] of 94% and a residual activity [36] of 100%. The residual activity [37] was 100%, the residual activity [38] was 100% and the residual activity [39] was 85%. The residual activity [40] was 67%, the inhibition [41] was 1.62% and the inhibition [42] was 2.62%. The inhibition [43] was 2.64%.

From ChEMBL document CHEMBL4507262, “Data for DCP probe A-1596586” (2021)
